Experimental data published in patent US20070082880A1 (priority 2005, published 2007).

molecular target: T1, human PKCθ full length enzyme (Homo sapiens, UniProt Q04759); test: PKCθ IMAP Assay; type: biochemical; details: average value when one or more samples were tested; ATP 6 uM, PKCθ 1 nM
T1 construct: human PKCθ full length enzyme (Panvera Catalog No. P2996); purchased Panvera P2996
Procedure, shortened: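 IMAP fluorescence polarization after 20 min with binding beads measured phosphorylation of 100 nM 5FAM-peptide. Reactions held 1 nM full-length human PKCθ, 6 uM ATP, 5% DMSO and DTT-containing buffer, 25 min at room temperature. Compounds tested as 2:1 serial dilutions; controls lacked ATP or enzyme.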

T1 sequence (Q04759 whole entry): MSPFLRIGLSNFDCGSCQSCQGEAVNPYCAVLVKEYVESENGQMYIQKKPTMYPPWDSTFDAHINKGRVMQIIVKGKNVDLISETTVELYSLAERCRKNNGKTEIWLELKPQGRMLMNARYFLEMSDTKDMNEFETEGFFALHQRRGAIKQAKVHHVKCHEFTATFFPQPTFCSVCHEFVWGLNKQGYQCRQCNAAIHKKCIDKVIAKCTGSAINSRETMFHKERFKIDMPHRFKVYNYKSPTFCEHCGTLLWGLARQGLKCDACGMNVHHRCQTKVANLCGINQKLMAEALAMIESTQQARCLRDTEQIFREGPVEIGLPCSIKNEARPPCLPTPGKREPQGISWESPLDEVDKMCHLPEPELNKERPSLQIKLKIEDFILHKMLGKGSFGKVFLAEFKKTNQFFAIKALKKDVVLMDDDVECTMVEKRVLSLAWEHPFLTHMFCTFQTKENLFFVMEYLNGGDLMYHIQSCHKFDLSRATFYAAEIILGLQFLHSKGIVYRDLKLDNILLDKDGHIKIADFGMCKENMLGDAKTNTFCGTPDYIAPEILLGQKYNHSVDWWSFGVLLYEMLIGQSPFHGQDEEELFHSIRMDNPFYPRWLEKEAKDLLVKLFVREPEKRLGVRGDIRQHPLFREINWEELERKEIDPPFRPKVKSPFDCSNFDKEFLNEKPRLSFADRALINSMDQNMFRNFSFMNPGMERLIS

Compound	IC50
Cc1c(Nc2c(C#N)cnc3sc(-c4ccc(NS(C)(=O)=O)cc4)c(C)c23)ccc2[nH]ccc12 [Compound 372, N-(4-{5-cyano-3-methyl-4-[(4-methyl-1H-indol-5-yl)amino]thieno[2,3-b]pyridin-2-yl}phenyl)methanesulfonamide]	627 nM
Cc1c(Nc2c(C#N)cnc3sc(-c4ccccc4O)cc23)ccc2[nH]ccc12 [Compound 442, 2-(2-hydroxyphenyl)-4-[(4-methyl-1H-indol-5-yl)amino]thieno[2,3-b]pyridine-5-carbonitrile]	273 nM
Cc1c(Nc2c(C#N)cnc3sc(-c4ccccc4S(=O)(=O)N(C)C)cc23)ccc2[nH]ccc12 [Compound 238, 2-{5-cyano-4-[(4-methyl-1H-indol-5-yl)amino]thieno[2,3-b]pyridin-2-yl}-N,N-dimethylbenzenesulfonamide]	440 nM
Cc1c(Nc2c(C#N)cnc3sc(C(=O)NC4CCNCC4)cc23)ccc2[nH]ccc12 [Compound 266, 5-cyano-4-[(4-methyl-1H-indol-5-yl)amino]-N-piperidin-4-ylthieno[2,3-b]pyridine-2-carboxamide]	44 nM
Cc1c(Nc2c(C#N)cnc3sc(C#Cc4cccc(CN(C)C)n4)cc23)ccc2[nH]ccc12 [Compound 220, 2-({6-[(dimethylamino)methyl]pyridin-2-yl}ethynyl)-4-(4-methyl-1H-indol-5-ylamino)thieno[2,3-b]pyridine-5-carbonitrile]	14 nM
Cc1c(Nc2c(C#N)cnc3sc(-c4ccc5ccccc5c4)cc23)ccc2[nH]ccc12 [Compound 362, 4-[(4-methyl-1H-indol-5-yl)amino]-2-(2-naphthyl)thieno[2,3-b]pyridine-5-carbonitrile]	72 nM
Cc1c(Nc2c(C#N)cnc3sc(-c4cccnn4)cc23)ccc2[nH]ccc12 [Compound 523, 4-[(4-methyl-1H-indol-5-yl)amino]-2-pyridazin-3-ylthieno[2,3-b]pyridine-5-carbonitrile]	15 nM
Cc1c(Nc2c(C#N)cnc3sc(-c4ccc(F)c(C(=O)N(C)C)c4)cc23)ccc2[nH]ccc12 [Compound 518, 5-{5-cyano-4-[(4-methyl-1H-indol-5-yl)amino]thieno[2,3-b]pyridin-2-yl}-2-fluoro-N,N-dimethylbenzamide]	59 nM
Cc1cc(C=O)cc(-c2cc3c(Nc4ccc5[nH]ccc5c4C)c(C#N)cnc3s2)c1 [Compound 378, 2-(3-formyl-5-methylphenyl)-4-[(4-methyl-1H-indol-5-yl)amino]thieno[2,3-b]pyridine-5-carbonitrile]	98 nM
CCCOc1c(C=O)cc(C)cc1-c1cc2c(Nc3ccc4[nH]ccc4c3C)c(C#N)cnc2s1 [Compound 379, 2-(3-formyl-5-methyl-2-propoxyphenyl)-4-[(4-methyl-1H-indol-5-yl)amino]thieno[2,3-b]pyridine-5-carbonitrile]	169 nM
Cc1c(Nc2c(C#N)cnc3sc(-c4ccc(OCCCl)cc4)cc23)ccc2[nH]ccc12 [Compound 351, 2-[4-(2-chloroethoxy)phenyl]-4-[(4-methyl-1H-indol-5-yl)amino]thieno[2,3-b]pyridine-5-carbonitrile]	120 nM
COc1c(C=O)cccc1-c1cc2c(Nc3ccc4[nH]ccc4c3C)c(C#N)cnc2s1 [Compound 525, 2-(3-formyl-2-methoxyphenyl)-4-[(4-methyl-1H-indol-5-yl)amino]thieno[2,3-b]pyridine-5-carbonitrile]	15 nM
COc1ccc(CN(C)C)cc1-c1sc2ncc(C#N)c(Nc3ccc4[nH]ccc4c3C)c2c1C [Compound 459, 2-{5-[(dimethylamino)methyl]-2-methoxyphenyl}-3-methyl-4-[(4-methyl-1H-indol-5-yl)amino]thieno[2,3-b]pyridine-5-carbonitrile]	243 nM

The next lines start with the values.

IC50	Compound
318 nM	COc1ccc(-c2cc3c(Nc4ccc5[nH]ccc5c4)c(C#N)cnc3s2)cc1CN(C)C [Compound 456, 2-{3-[(dimethylamino)methyl]-4-methoxyphenyl}-4-(1H-indol-5-ylamino)thieno[2,3-b]pyridine-5-carbonitrile]
170 nM	N#Cc1cnc2sc(-c3cccc(CN4CCC(O)CC4)c3)cc2c1Nc1ccc2[nH]ccc2c1 [Compound 176, 2-{3-[(4-hydroxypiperidin-1-yl)methyl]phenyl}-4-(1H-indol-5-ylamino) thieno[2,3-b]pyridine-5-carbonitrile]
34 nM	Cc1c(Nc2c(C#N)cnc3sc(/C=C/c4ccccc4)cc23)ccc2[nH]ccc12 [Compound 416, 4-[(4-methyl-1H-indol-5-yl)amino]-2-[(E)-2-phenylvinyl]thieno[2,3-b]pyridine-5-carbonitrile]
23 nM	Cc1c(Nc2c(C#N)cnc3sc(/C=C/CN4CCCC4)cc23)ccc2[nH]ccc12 [Compound 276, 4-[(4-methyl-1H-indol-5-yl)amino]-2-[(1E)-3-pyrrolidin-1-ylprop-1-en-1-yl]thieno[2,3-b]pyridine-5-carbonitrile]
87 nM	Cc1cc2[nH]ccc2cc1Nc1c(C#N)cnc2sc(-c3ccccc3)cc12 [Compound 323, 4-[(6-methyl-1H-indol-5-yl)amino]-2-phenylthieno[2,3-b]pyridine-5-carbonitrile]
2070 nM	N#Cc1cnc2sc(/C=C/C(=O)NCCO)cc2c1Nc1ccc2[nH]ccc2c1 [Compound 289, (2E)-3-[5-cyano-4-(1H-indol-5-ylamino)thieno[2,3-b]pyridin-2-yl]-N-(2-hydroxyethyl)acrylamide]
44 nM	N#Cc1cnc2sc(-c3csc(CN4CC[C@H](O)C4)c3)cc2c1Nc1ccc2[nH]ccc2c1 [Compound 157, 2-(5-{[(3S)-3-hydroxypyrrolidin-1-yl]methyl}-3-thienyl)-4-(1H-indol-5-ylamino)thieno[2,3-b]pyridine-5-carbonitrile]
340 nM	N#Cc1cnc2sc(-c3ccc(S(=O)(=O)NCCO)cc3)cc2c1Nc1ccc2[nH]ccc2c1 [Compound 232, 4-[5-cyano-4-(1H-indol-5-ylamino)thieno[2,3-b]pyridin-2-yl]-N-(2-hydroxyethyl)benzenesulfonamide]
160 nM	CN(C)CCNCc1cccc(-c2cc3c(Nc4ccc5[nH]ccc5c4)c(C#N)cnc3s2)c1 [Compound 166, 2-[3-({[2-(dimethylamino)ethyl]amino}methyl)phenyl]-4-(1H-indol-5-ylamino)thieno[2,3-b]pyridine-5-carbonitrile]
57 nM	N#Cc1cnc2sc(-c3csc(CN4CCC[C@H]4CO)c3)cc2c1Nc1ccc2[nH]ccc2c1 [Compound 158, 2-(5-{[(2S)-2-(hydroxymethyl)pyrrolidin-1-yl]methyl}-3-thienyl)-4-(1H-indol-5-ylamino)thieno[2,3-b]pyridine-5-carbonitrile]
394 nM	N#Cc1cnc2sc(/C=C/CCO)cc2c1Nc1ccc2[nH]ccc2c1 [Compound 403, 2-[(1E)-4-hydroxybut-1-en-1-yl]-4-(1H-indol-5-ylamino)thieno[2,3-b]pyridine-5-carbonitrile]
14 nM	Cc1c(Nc2c(C#N)cnc3sc(/C=C/CCO)cc23)ccc2[nH]ccc12 [Compound 420, 2-[(1E)-4-hydroxybut-1-en-1-yl]-4-[(4-methyl-1H-indol-5-yl)amino]thieno[2,3-b]pyridine-5-carbonitrile]
1320 nM	N#Cc1c[n+]([O-])c2sccc2c1Nc1ccc2[nH]ccc2c1 [Compound 499, 4-(1H-indol-5-ylamino)thieno[2,3-b]pyridine-5-carbonitrile-7-oxide]
